Source: patent US11566007B2, “Ras inhibitors” (Revolution Medicines, Inc., priority 2019, dated 2023)

How the values were obtained:
[1] = tested on: NCI-H358 cells (K-Ras G12C); experiment: Potency assay: pERK in NCI-H358 cells; assay type: cell-based, human; details: Homo sapiens, NCI-H358; H358 KRAS G12C; read-out: pERK EC50
Method in brief: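 Compounds are dosed as ten 3-fold dilutions from a 10 mM DMSO stock, in duplicate, and left on cells for 4 h at 37 °C, 5% CO2. Phospho-ERK1/2 is then quantified by AlphaLISA SureFire Ultra or In-Cell Western, and IC50 is derived from a 4-parameter sigmoid against log concentration.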

[2] = biological target: KRAS G12S (Homo sapiens (Human), UniProt P01116+P62937, G12S); experiment: Ras-Raf (BRAF RBD) disruption / FRET / MOA assay, KRAS G12S; assay type: biochemical; details: Ras-Raf disruption/FRET/MOA assay; class symbols; read-out: KRAS G12S FRET data IC50
Method in brief: (§1)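 Compound-driven ternary complex of nucleotide-loaded Ras with cyclophilin A, disrupting BRAF RBD binding. 10-point 3-fold dilution from 30 μM final, 3 h at 25° C, then anti-His Eu-W1024 (10 nM) and anti-GST allophycocyanin (50 nM) for 1.5 h. IC50 from TR-FRET ratio decrease versus DMSO.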

[3] = biological target: KRAS WT (Homo sapiens (Human), UniProt P01116+P62937); experiment: Ras-Raf (BRAF RBD) disruption / FRET / MOA assay, KRAS WT; assay type: biochemical; details: read-out: IC50* KRAS WT FRET data
Method in brief: as §1

[4] = biological target: K-Ras G12C (Homo sapiens (Human), UniProt P01116+P62937, G12C); experiment: Ras-Raf (BRAF RBD) disruption / FRET / MOA assay, KRAS G12C; assay type: biochemical; details: KRAS G12C; Ras-Raf disruption/FRET/MOA assay; read-out: IC50* KRAS G12C FRET data
Method in brief: as §1

[5] = biological target: KRAS G13D (Homo sapiens (Human), UniProt P01116+P62937, G13D); experiment: Ras-Raf (BRAF RBD) disruption / FRET / MOA assay, KRAS G13D; assay type: biochemical; details: read-out: IC50* KRAS G13D FRET data
Method in brief: as §1

[6] = biological target: NRAS Q61K (Homo sapiens (Human), UniProt P01111+P62937, Q61K); experiment: Ras-Raf (BRAF RBD) disruption / FRET / MOA assay, NRAS Q61K; assay type: biochemical; details: NRAS Q61K; Ras-Raf disruption/FRET/MOA assay; read-out: IC50* NRAS Q61K FRET data
Method in brief: (§2)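 Compounds (30 μM top final, 10-point 3-fold dilutions) incubated 3 h at 25° C with nucleotide-loaded Ras, cyclophilin A and BRAF RBD. Detection with 10 nM anti-His Eu-W1024 and 50 nM anti-GST allophycocyanin over another 1.5 h. Lowered TR-FRET ratio relative to DMSO wells gives IC50.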

[7] = biological target: KRAS Q61H (Homo sapiens (Human), UniProt P01116+P62937, Q61H); experiment: Ras-Raf (BRAF RBD) disruption / FRET / MOA assay, KRAS Q61H; assay type: biochemical; details: Ras-Raf disruption/FRET/MOA assay; class symbols; read-out: KRAS Q61H FRET data IC50
Method in brief: as §2

KRAS WT, sequence (P01116-2 other isoform, or with tags, fused parts or gaps): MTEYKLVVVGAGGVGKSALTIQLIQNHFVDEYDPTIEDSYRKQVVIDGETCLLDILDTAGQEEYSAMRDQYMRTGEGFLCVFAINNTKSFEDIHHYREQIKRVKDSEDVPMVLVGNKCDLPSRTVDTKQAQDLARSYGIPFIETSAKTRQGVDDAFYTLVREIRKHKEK
KRAS WT, sequence (P62937 whole entry): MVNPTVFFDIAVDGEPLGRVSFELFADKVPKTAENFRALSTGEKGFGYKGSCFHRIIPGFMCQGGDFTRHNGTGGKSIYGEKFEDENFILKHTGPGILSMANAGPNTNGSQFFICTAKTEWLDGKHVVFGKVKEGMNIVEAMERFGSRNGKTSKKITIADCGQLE
K-Ras G12C, sequence (P01116-2 other isoform, or with tags, fused parts or gaps G12C): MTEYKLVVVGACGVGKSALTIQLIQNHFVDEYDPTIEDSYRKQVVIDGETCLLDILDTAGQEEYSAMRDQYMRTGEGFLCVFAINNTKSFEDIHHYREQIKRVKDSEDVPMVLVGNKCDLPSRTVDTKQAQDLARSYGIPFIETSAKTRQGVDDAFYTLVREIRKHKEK
K-Ras G12C, sequence (P62937 whole entry): as the sequence (P62937 whole entry) above
NRAS Q61K, sequence (P01111 whole entry Q61K): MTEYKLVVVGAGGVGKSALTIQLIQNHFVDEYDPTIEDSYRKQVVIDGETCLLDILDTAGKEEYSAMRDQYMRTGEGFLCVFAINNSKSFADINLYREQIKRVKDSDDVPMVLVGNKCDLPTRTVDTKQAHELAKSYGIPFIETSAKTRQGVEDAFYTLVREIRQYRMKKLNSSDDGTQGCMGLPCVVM
NRAS Q61K, sequence (P62937 whole entry): as the sequence (P62937 whole entry) above
KRAS G12S, sequence (P01116-2 other isoform, or with tags, fused parts or gaps G12S): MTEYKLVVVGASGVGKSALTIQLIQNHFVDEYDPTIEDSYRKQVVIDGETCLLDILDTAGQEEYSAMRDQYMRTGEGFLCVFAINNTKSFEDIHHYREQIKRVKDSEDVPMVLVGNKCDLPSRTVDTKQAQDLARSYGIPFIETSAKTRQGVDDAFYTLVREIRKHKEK
KRAS G12S, sequence (P62937 whole entry): as the sequence (P62937 whole entry) above
KRAS G13D, sequence (P01116-2 other isoform, or with tags, fused parts or gaps G13D): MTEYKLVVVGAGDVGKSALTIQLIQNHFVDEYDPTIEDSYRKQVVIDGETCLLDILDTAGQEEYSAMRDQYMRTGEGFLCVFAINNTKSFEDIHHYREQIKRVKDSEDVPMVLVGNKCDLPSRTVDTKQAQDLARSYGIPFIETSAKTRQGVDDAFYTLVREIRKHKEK
KRAS G13D, sequence (P62937 whole entry): as the sequence (P62937 whole entry) above
KRAS Q61H, sequence (P01116-2 other isoform, or with tags, fused parts or gaps Q61H): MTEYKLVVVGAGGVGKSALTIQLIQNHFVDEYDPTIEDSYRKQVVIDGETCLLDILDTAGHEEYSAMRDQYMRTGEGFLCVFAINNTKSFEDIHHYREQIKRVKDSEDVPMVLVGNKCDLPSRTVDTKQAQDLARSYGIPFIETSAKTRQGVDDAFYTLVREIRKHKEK
KRAS Q61H, sequence (P62937 whole entry): as the sequence (P62937 whole entry) above

| Structure (SMILES) | EC50 [1] | IC50 [2] | IC50 [3] | IC50 [4] | IC50 [5] | IC50 [6] | IC50 [7] |
| --- | --- | --- | --- | --- | --- | --- | --- |
| CCn1c(-c2cccnc2[C@H](C)OC)c2c3cc(ccc31)-c1cccc(c1)C[C@H](NC(=O)[C@@H](COC1CN(C(=O)C#CC(C)(C)N(C)C3CC3)C1)C(C)C)C(=O)N1CCC[C@H](N1)C(=O)OCC(C)(C)C2 (atropisomer, axis not shown) [Example A613] | < 5 µM | > 10 µM | > 10 µM | 0.1 to 1 µM | > 10 µM | > 10 µM | > 10 µM |
| CCn1c(-c2cccnc2[C@H](C)OC)c2c3cc(ccc31)N1CCC[C@@H](C[C@H](NC(=O)[C@H](C(C)C)N(C)C(=O)[C@H]3CCN(C(=O)C#CC(C)(C)N4CCC4)C3)C(=O)N3CCC[C@H](N3)C(=O)OCC(C)(C)C2)C1 (atropisomer, axis not shown) [Example A617] | < 5 µM | > 10 µM | > 10 µM | 0.01 to 0.1 µM | > 10 µM | > 10 µM | > 10 µM |
| C=CC(=O)N1CCC[C@H]2CN(C(=O)N(C)[C@H](C(=O)N[C@H]3Cc4nc(cs4)-c4ccc5c(c4)c(c(-c4cccnc4[C@H](C)OC)n5CC)CC(C)(C)COC(=O)[C@@H]4CCCN(N4)C3=O)C(C)C)C[C@H]21 (atropisomer, axis not shown) [Example A618] | < 5 µM | 0.1 to 1 µM | 0.1 to 1 µM | 0.1 to 1 µM | 1 to 10 µM | 0.1 to 1 µM | 0.1 to 1 µM |
| CCn1c(-c2cccnc2[C@H](C)OC)c2c3cc(ccc31)-c1csc(n1)C[C@H](NC(=O)[C@H](C(C)C)N(C)C(=O)N1C[C@@H]3CN(C(=O)C#CC(C)(C)N(C)C)CC[C@@H]31)C(=O)N1CCC[C@H](N1)C(=O)OCC(C)(C)C2 (atropisomer, axis not shown) [Example A625] | < 5 µM | 0.1 to 1 µM | 0.1 to 1 µM | 0.1 to 1 µM | 1 to 10 µM | 0.1 to 1 µM | 0.1 to 1 µM |
| C=CC(=O)N(C)[C@H]1CN(C(=O)N(C)[C@H](C(=O)N[C@H]2Cc3nc(cs3)-c3ccc4c(c3)c(c(-c3cccnc3[C@H](C)OC)n4CC)CC(C)(C)COC(=O)[C@@H]3CCCN(N3)C2=O)C(C)C)C[C@@H]1F (atropisomer, axis not shown) [Example A632] | < 5 µM | 0.1 to 1 µM | 0.1 to 1 µM | 0.01 to 0.1 µM | 1 to 10 µM | 0.1 to 1 µM | 0.1 to 1 µM |
| C=CC(=O)N(C)[C@@H]1C[C@H](C)N(C(=O)N(C)[C@H](C(=O)N[C@H]2Cc3nc(cs3)-c3ccc4c(c3)c(c(-c3cccnc3[C@H](C)OC)n4CC)CC(C)(C)COC(=O)[C@@H]3CCCN(N3)C2=O)C(C)C)C1 (atropisomer, axis not shown) [Example A633] | < 5 µM | 0.1 to 1 µM | 0.01 to 0.1 µM | 0.1 to 1 µM | 0.1 to 1 µM | 0.01 to 0.1 µM | 0.01 to 0.1 µM |
| C=CC(=O)N(C)[C@@H]1C[C@@H](C)N(C(=O)N(C)[C@H](C(=O)N[C@H]2Cc3nc(cs3)-c3ccc4c(c3)c(c(-c3cccnc3[C@H](C)OC)n4CC)CC(C)(C)COC(=O)[C@@H]3CCCN(N3)C2=O)C(C)C)C1 (atropisomer, axis not shown) [Example A634] | < 5 µM | 0.1 to 1 µM | 0.1 to 1 µM | 0.01 to 0.1 µM | 1 to 10 µM | 0.1 to 1 µM | 0.1 to 1 µM |
| C=CC(=O)N1CCCC2(CCN(C(=O)N(C)[C@H](C(=O)N[C@H]3Cc4nc(cs4)-c4ccc5c(c4)c(c(-c4cccnc4[C@H](C)OC)n5CC)CC(C)(C)COC(=O)[C@@H]4CCCN(N4)C3=O)C(C)C)CC2)C1 (atropisomer, axis not shown) [Example A635] | < 5 µM | 0.1 to 1 µM | 0.1 to 1 µM | 0.1 to 1 µM | 1 to 10 µM | 0.1 to 1 µM | 0.1 to 1 µM |
| C=CC(=O)N1CC2(CCN2C(=O)N(C)[C@H](C(=O)N[C@H]2Cc3cccc(n3)-c3ccc4c(c3)c(c(-c3cccnc3[C@H](C)OC)n4CC)CC(C)(C)COC(=O)[C@@H]3CCCN(N3)C2=O)C(C)C)C1 (atropisomer, axis not shown) [Example A636] | < 5 µM | 0.1 to 1 µM | 0.1 to 1 µM | 0.01 to 0.1 µM | 1 to 10 µM | 0.1 to 1 µM | 0.1 to 1 µM |
| CCn1c(-c2cccnc2[C@H](C)OC)c2c3cc(ccc31)-c1csc(n1)C[C@H](NC(=O)C[C@@H](C)OC1CN(C(=O)C#CC(C)(C)N(C)C)C1)C(=O)N1CCC[C@H](N1)C(=O)OCC(C)(C)C2 (atropisomer, axis not shown) [Example A638] | < 5 µM | 1 to 10 µM | 1 to 10 µM | < 0.01 µM | 1 to 10 µM | 1 to 10 µM | 1 to 10 µM |
| C=CC(=O)N1CC[C@H](C(=O)N(C)[C@H](C(=O)N[C@H]2Cc3cccc(c3)-c3ccc4c(c3)c(c(-c3cccnc3[C@H](C)OC)n4CC)CC(C)(C)COC(=O)[C@@H]3CCCN(N3)C2=O)[C@@H](C)C(F)(F)F)C1 (atropisomer, axis not shown) [Example A640] | < 5 µM | 1 to 10 µM | 1 to 10 µM | 0.1 to 1 µM | 1 to 10 µM | 1 to 10 µM | 0.1 to 1 µM |
| CCn1c(-c2cccnc2[C@H](C)OC)c2c3cc(ccc31)N1CCO[C@@H](C[C@H](NC(=O)[C@H](C(C)C)N(C)C(=O)C3(F)CCN(C(=O)/C=C/CN(C)C)CC3)C(=O)N3CCC[C@H](N3)C(=O)OCC(C)(C)C2)C1 (atropisomer, axis not shown) [Example A645] | < 5 µM | 1 to 10 µM | 1 to 10 µM | 0.01 to 0.1 µM | 1 to 10 µM | > 10 µM | 1 to 10 µM |
| CC#CC(=O)N1CC2(CCN2C(=O)N(C)[C@H](C(=O)N[C@H]2Cc3nc(cs3)-c3ccc4c(c3)c(c(-c3cccnc3[C@H](C)OC)n4CC)CC(C)(C)COC(=O)[C@@H]3CCCN(N3)C2=O)C(C)C)C1 (atropisomer, axis not shown) [Example A655] | < 5 µM | 0.1 to 1 µM | 0.1 to 1 µM | 0.1 to 1 µM | 0.1 to 1 µM | 0.01 to 0.1 µM | 0.01 to 0.1 µM |
| C=CC(=O)N1CC[C@]2(CCN2C(=O)N(C)[C@H](C(=O)N[C@H]2Cc3nc(cs3)-c3ccc4c(c3)c(c(-c3cccnc3[C@H](C)OC)n4CC)CC(C)(C)COC(=O)[C@@H]3CCCN(N3)C2=O)C(C)C)C1 (atropisomer, axis not shown) [Example A662] | < 5 µM | 0.1 to 1 µM | 0.1 to 1 µM | 0.01 to 0.1 µM | 0.1 to 1 µM | 0.01 to 0.1 µM | 0.01 to 0.1 µM |
| CCn1c(-c2cccnc2[C@H](C)OC)c2c3cc(ccc31)-c1csc(n1)C[C@H](NC(=O)[C@H](C(C)C)N(C)C(=O)N1CCCOC13CN(C(=O)C#CC(C)(C)N(C)C)C3)C(=O)N1CCC[C@H](N1)C(=O)OCC(C)(C)C2 (atropisomer, axis not shown) [Example A666] | < 5 µM | > 10 µM | > 10 µM | 1 to 10 µM | > 10 µM | > 10 µM | 1 to 10 µM |
| C=CC(=O)N1CC[C@]2(COCCN2C(=O)N(C)[C@H](C(=O)N[C@H]2Cc3nc(cs3)-c3ccc4c(c3)c(c(-c3cccnc3[C@H](C)OC)n4CC)CC(C)(C)COC(=O)[C@@H]3CCCN(N3)C2=O)C(C)C)C1 (atropisomer, axis not shown) [Example A676] | < 5 µM | 1 to 10 µM | 0.1 to 1 µM | 0.1 to 1 µM | 1 to 10 µM | 0.1 to 1 µM | 0.01 to 0.1 µM |
| C=CC(=O)N1CC2(CCN(C(=O)N(C)[C@H](C(=O)N[C@H]3Cc4cccc(c4)-c4ccc5c(c4)c(c(-c4cccnc4[C@H](C)OC)n5CC)CC(C)(C)COC(=O)[C@@H]4CCCN(N4)C3=O)C(C)C)CC2)C1 (atropisomer, axis not shown) [Example A680] | < 5 µM | 0.1 to 1 µM | 0.1 to 1 µM | 0.1 to 1 µM | 1 to 10 µM | 0.1 to 1 µM | 0.1 to 1 µM |
| C=CC(=O)N1CC[C@@H]2[C@H](C1)CN2C(=O)N(C)[C@H](C(=O)N[C@H]1Cc2nc(cs2)-c2ccc3c(c2)c(c(-c2cccnc2[C@H](C)OC)n3CC)CC(C)(C)COC(=O)[C@@H]2CCCN(N2)C1=O)C(C)C (atropisomer, axis not shown) [Example A688] | < 5 µM | 1 to 10 µM | 0.1 to 1 µM | 0.1 to 1 µM | 1 to 10 µM | 0.1 to 1 µM | 0.1 to 1 µM |
